Test results from patent US12479866B2, “Boron-containing rho kinase inhibitors” (Percipiad, Inc., priority 2019, dated 2025).

Tests used:
[1] = biological target: AKT1 (Homo sapiens (Human), UniProt P31749); assay: AGC Kinase Selectivity Profiling (ADP-Glo); assay type: biochemical; conditions: 1 μM compound; AGC Panel; read-out: Percent enzyme activity inhibition, AKT1
Text: ROCK1 (also called ROCK I, ROKβ, Rho-kinase β, or p160ROCK) and ROCK2 ((also known as ROCK II, ROKα, or Rho kinase) belong to AGC family of serine/threonine kinases. The group of AGC kinases consists of 63 evolutionarily related serine/threonine protein kinases comprising PDK1, PKB/Akt, SGK, PKC, PRK/PKN, MSK, RSK, S6K, PKA, PKG, DMPK, MRCK, ROCK, NDR, LATS, CRIK, MAST, GRK, Sgk494, and YANK, while two other families, Aurora and PLK, are the most closely related to the group (Leroux et al., AGC kinases, mechanisms of regulation and innovative drug development, Semin Cancer Biol. 2018 February; 48:1-17).

[2] = biological target: PKA-NanoLuc fusion protein (Homo sapiens (Human), UniProt P17612); assay: PKA-NanoBRET Target Engagement Intracellular Kinase Assay in HEK293 cells; assay type: cell-based; conditions: live HEK293 cells, 2 hours; read-out: Estimated IC50, inhibition of NanoBRET tracer binding to PKA
Experimental: NanoBRET™ TE assay is based on the NanoBRET™ System, an energy transfer technique designed to measure molecular proximity in living cells. The NanoBRET™ TE assay measures the apparent affinity of test compounds by competitive displacement of the NanoBRET™ tracer, reversibly bound to a NanoLuc® luciferase-kinase fusions in cells. Using the NanoBRET™ TE Kinase Assay, a fixed concentration of tracer is added to cells expressing the desired NanoLuc® kinase fusion to generate a BRET signal. […] Centrifuged culture, resuspended cells in fresh culture media, and dispense 85 ul in to wells of 96-well plate. • 3. […] Added 10 μl of 10× serially diluted inhibitor compound per well containing cells with IX NanoBRET Tracer Reagent. Thoroughly mixed plate on an orbital shaker for 15 seconds at 700 rpm. • 5. […] Equilibrated plate to room temperature for ˜15 minutes. • 6. […] Measured donor emission wavelength (450 nm) and acceptor emission wavelength (610 nm) using the GloMax® Discover System (Promega). To generate raw BRET ratio values, divided the acceptor emission value (610 nm) by the donor emission value (450 nm) for each sample.

[3] = biological target: T1, ROCK2 (Homo sapiens (Human), UniProt O75116); assay: Stability in varied buffers and temperatures, measured by ROCK2 inhibition; assay type: physicochemical
T1 sequence (O75116 whole entry): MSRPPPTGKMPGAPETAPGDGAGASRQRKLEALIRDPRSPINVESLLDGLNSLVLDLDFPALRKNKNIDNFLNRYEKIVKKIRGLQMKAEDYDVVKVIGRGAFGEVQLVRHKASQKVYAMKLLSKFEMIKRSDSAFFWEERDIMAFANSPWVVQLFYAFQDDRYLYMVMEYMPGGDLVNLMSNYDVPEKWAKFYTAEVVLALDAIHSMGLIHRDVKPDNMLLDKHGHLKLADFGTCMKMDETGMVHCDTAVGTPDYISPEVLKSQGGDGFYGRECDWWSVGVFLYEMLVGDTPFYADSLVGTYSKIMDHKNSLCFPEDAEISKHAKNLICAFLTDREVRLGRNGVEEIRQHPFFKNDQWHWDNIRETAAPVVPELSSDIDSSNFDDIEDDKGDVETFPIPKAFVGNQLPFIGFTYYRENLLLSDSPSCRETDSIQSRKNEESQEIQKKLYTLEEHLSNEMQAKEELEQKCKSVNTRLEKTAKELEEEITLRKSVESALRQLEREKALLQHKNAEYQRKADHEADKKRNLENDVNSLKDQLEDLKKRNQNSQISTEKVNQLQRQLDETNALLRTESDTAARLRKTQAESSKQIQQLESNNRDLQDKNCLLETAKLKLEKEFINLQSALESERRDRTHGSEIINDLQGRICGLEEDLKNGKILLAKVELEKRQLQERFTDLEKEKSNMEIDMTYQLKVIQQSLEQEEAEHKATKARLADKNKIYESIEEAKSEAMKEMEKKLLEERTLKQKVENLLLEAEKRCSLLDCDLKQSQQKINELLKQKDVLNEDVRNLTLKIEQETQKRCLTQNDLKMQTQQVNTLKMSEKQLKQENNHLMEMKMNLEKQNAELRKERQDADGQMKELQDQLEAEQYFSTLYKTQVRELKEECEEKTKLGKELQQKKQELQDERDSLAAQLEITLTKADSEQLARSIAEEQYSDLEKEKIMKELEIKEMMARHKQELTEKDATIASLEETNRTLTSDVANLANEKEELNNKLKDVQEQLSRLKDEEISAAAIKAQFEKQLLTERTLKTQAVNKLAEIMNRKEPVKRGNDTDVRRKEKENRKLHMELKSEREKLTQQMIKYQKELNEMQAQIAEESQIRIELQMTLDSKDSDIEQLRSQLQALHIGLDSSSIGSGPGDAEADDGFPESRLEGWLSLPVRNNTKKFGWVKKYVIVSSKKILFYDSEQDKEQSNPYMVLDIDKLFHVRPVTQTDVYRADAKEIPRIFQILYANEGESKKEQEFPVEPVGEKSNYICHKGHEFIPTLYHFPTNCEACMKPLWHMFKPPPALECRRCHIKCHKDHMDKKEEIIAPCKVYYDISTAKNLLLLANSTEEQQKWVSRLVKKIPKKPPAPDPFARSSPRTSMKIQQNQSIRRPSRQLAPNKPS
Experimental: Stability in Varied Buffers and Temperatures. […] (room temperature), 37° C., 4° C., and −20° C. in water, 150 mM NaCl, pH 5 and 6 buffers, or buffers containing 150 mM NaCl. No visible precipitates were observed after storage.

[4] = test system: primary hTM cells; assay: RealTime-Glo MT cell viability assay in hTM cells; assay type: cell-based; conditions: all concentrations and time points (24 h, 48 h, 72 h)
Text: Commercially available RealTime-Glo™ MT cell viability (Promega, catalog #G9712) and CellTox™ Green cytotoxicity (Promega, catalog #G8731) assays were used in assessing effect of compounds on primary hTM cell viability and cytotoxicity. The RealTime-Glo™ MT cell viability assay is a nonlytic, homogeneous, bioluminescent method that determines the number of viable cells in culture by measuring the reducing potential of cells and thus metabolism (MT). Viable cells reduce the proprietary pro-substrate to generate a substrate for NanoLuc® luciferase. This substrate diffuses from cells into the surrounding culture medium, where it is rapidly used by the NanoLuc® Enzyme to produce a luminescent signal. In a contrasting and complementary manner, CellTox™ Green cytotoxicity assay measures changes in membrane integrity that occur as a result of cell death. This assay system uses a proprietary asymmetric cyanine dye that is excluded from viable cells but preferentially stains the dead cells' DNA. The fluorescent signal produced by the dye binding to the dead-cell DNA is proportional to cytotoxicity.
Human™ cells were cultured and maintained as described in Example 12. Fifty μl cells (600 cells) in culture media containing compound, 25 μl media with RealTime-Glo™ MT cell viability assay reagent and 25 μl media with CellTox™ Green cytotoxicity assay reagent were plated in black, clear bottom 96-well plates. Light emitted by luciferase and fluorescence emitted by dye binding to DNA (excitation 485 nm and emission 525 nm) were measured at 24 h, 48 h, and 72 h after incubation using plate based luminescence and fluorescence plate readers.

[5] = test system: New Zealand White rabbits; conditions: 0.1 ml, 20 mg/ml in saline
Text: The right eye that was not treated served as the control. […] The eyes of initial and confirmatory test animals were examined with slit lamp for ocular lesions. […] The animals were also observed for clinical signs of toxicity, morbidity and mortality.

[6] = biological target: T1, ROCK2; assay: Stability in varied buffers and temperatures, measured by ROCK2 inhibition; assay type: physicochemical; remark: listed apart in the source
[7] = test system: HEK293 cells; assay: CellTiter-Glo Luminescent Cell Viability Assay; conditions: HEK293 cells, 25, 2.5, or 0.25 μM, two days
Experimental: We used CellTiter-Glo® Luminescent Cell Viability Assay (Promega, cat #G7573) to determine the number of viable cells in culture based on quantitation of the ATP present, which signals the presence of metabolically active cells. • 1. Prepared HEK293 suspension culture cells (ThermoFisher, cat #A14635) and added 50 μl cells in media (12,500 cells) to each well of a white, opaque-walled 96-well plate in triplicate. • 2. […] Incubated at 37° C. and 5% CO2 for two days. • 4. Added 100 μl of CellTiter-Glo® Reagent to each well and mix contents for 2 minutes on an orbital shaker to induce cell lysis. • 5. Recorded luminescence using a plate luminometer.

Sequence of AKT1 (P31749 whole entry): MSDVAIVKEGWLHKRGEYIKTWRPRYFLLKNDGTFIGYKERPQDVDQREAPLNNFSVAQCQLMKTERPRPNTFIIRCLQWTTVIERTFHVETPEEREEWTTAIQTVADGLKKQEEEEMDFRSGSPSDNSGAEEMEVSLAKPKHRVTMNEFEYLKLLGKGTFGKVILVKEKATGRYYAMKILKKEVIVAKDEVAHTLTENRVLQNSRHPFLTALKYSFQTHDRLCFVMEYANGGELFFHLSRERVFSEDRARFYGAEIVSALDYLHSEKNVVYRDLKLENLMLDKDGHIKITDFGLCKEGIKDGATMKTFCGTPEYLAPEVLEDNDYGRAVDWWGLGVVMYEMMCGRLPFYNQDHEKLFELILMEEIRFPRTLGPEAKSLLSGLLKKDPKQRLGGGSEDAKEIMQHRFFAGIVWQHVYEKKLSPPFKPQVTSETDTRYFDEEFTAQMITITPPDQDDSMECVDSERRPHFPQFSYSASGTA

In the case of `Cl.Cl.NCC(C(=O)Nc1ccc2cnccc2c1)c1ccc(B(O)O)cc1` (stereo not shown) [Compound 10•2HCl], the inhibition at 1 µM [1] is reported as 52%, the IC50 [2] is reported as 1420 nM and the “% ROCK2 inhibition at 20 nM” value ([3]; 25 mM Borate pH 5 (0.5 mg/ml), 15 days at 23° C.) is reported as 31%. For the same compound, the “% ROCK2 inhibition at 20 nM” value ([3]; 25 mM Borate, pH 5 (0.5 mg/ml), 15 days at −20° C.) was 32%, the “% ROCK2 inhibition at 20 nM” value ([3]; 25 mM Borate, pH 5, 150 mM NaCl (0.5 mg/ml), 15 days at 23° C.) was 29% and the “% ROCK2 inhibition at 20 nM” value ([3]; 150 mM NaCl (0.5 mg/ml), 0 days at 23° C.) was 35%. For the same compound, the “% ROCK2 inhibition at 20 nM” value ([3]; 150 mM NaCl (0.5 mg/ml), 15 days at 23° C.) was 35%, the “% ROCK2 inhibition at 20 nM” value ([3]; 150 mM NaCl (2 mg/ml), 120 days at 4° C.) was 31% and the “% ROCK2 inhibition at 20 nM” value ([3]; 150 mM NaCl (2 mg/ml), 120 days at 37° C.) was 35%. The Stability in solution ([3]; 150 mM NaCl, 37° C. and 4° C.) was “stable for 4 months”, the “% ROCK2 inhibition at 20 nM” value ([3]; Water (0.5 mg/ml), 15 days at 23° C.) was 34% and the “% ROCK2 inhibition at 20 nM” value ([3]; Water (0.5 mg/ml), 15 days at −20° C.) was 33%. The “Effect on viability (in words)” value [4] was “no effect on viability or membrane integrity”, the “clinical signs of toxicity, morbidity and mortality” value [5] was “No treatment-related adverse effects were noticed” and the “% ROCK2 inhibition at 20 nM” value ([6]; 25 mM Borate pH 7 (0.5 mg/ml), 15 days at 23° C.) was 36%. The “% ROCK2 inhibition at 20 nM” value ([6]; 25 mM Borate, pH 7 (0.5 mg/ml), 15 days at −20° C.) was 34%, the “% ROCK2 inhibition at 20 nM” value ([6]; 25 mM Borate, pH 7, 150 mM NaCl (0.5 mg/ml), 15 days at 23° C.) was 32% and the Stability in solution ([6]; pH 5 and 7 buffers, room temperature) was “stable in pH 5 and 7 buffers at room temperature for 15 days”. For the same compound, the “Cell viability (ATP amount)” value [7] was “same amount of ATP as cells without inhibitor”.
